According to patent US20170202782A1 (Abraxis BioScience, LLC, priority 2014, published 2017):

Tests used:
[1] = tested on: human pancreatic carcinoma MiaPACA2 xenograft tumors; assay: CIVO arrayed microinjection into xenografted MiaPACA2 tumors, immunofluorescence (CC3, pHH3)
Method: Microinjections were performed using the CIVO™ arrayed microinjection device (Presage Biosciences, Seattle Wash.). This device enables simultaneous delivery of multiple drug samples, each individually, directly into spatially defined positions within a living tumor. The CIVO device having a 5 needle array was inserted transcutaneously into flank tumors of anesthetized mice.
24 hours later, tumors were resected and sectioned across the axis of injection to produce histological sections of tumor that show the 5 different sites of injection.
Circular regions of interests (ROI) centered on the injection sites were inscribed. Within each ROI, the fraction of cells expressing CC3 was mapped as a function of radial distance from the injection site. To generate radial response plots, calculations were made at 100 micron intervals and were based on all cells within a 100 micron wide band centered at each radial distance. Measurements began at 200 microns to exclude regions directly affected by needle induced injury.
Tumors from a first set of mice were processed for immunofluorescence analysis with CC3 antibodies 24 hours after injection (FIG. 3A), and tumors from a second set were processed for analysis with CC3 antibodies 48 hours after injection (FIG. 3B). […]

Bcl-w = target: T1, Bcl-w (Homo sapiens, UniProt Q92843); conditions: cited from earlier work
T1 sequence (Q92843 1-193): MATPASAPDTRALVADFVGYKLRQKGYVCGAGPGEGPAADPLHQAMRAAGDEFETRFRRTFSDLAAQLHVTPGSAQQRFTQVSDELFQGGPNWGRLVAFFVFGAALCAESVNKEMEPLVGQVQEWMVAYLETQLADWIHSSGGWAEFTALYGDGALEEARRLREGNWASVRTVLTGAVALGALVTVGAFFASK

| SMILES | CC3 positive cells at the site of injection ([1]; MiaPACA2 tumors, 24 hours, diminished with increasing radial distance (FIG. 2)) | synergy with Abraxane in inducing tumor cell death ([1]; solid tumor models, combination with Abraxane (summary statement)) | Ki (Bcl-w) |
| --- | --- | --- | --- |
| CC1(C)CCC(CN2CCN(c3ccc(C(=O)NS(=O)(=O)c4ccc(NCC5CCOCC5)c([N+](=O)[O-])c4)c(Oc4cnc5[nH]ccc5c4)c3)CC2)=C(c2ccc(Cl)cc2)C1 [ABT-199] | increase | not observed | – |
| CC1(C)CCC(c2ccc(Cl)cc2)=C(CN2CCN(c3ccc(C(=O)NS(=O)(=O)c4ccc(N[C@H](CCN5CCOCC5)CSc5ccccc5)c(S(=O)(=O)C(F)(F)F)c4)cc3)CC2)C1 [ABT-263] | – | – | ≤ 1 nM |
